Read-outs that look alike come from different tables or passages of the source.
Assays:
Type in all cases: biochemical
Pim-1 = biological target: T1, Pim-1 (Homo sapiens, UniProt P11309); assay: TR-FRET assay, Pim-1 kinase (phosphorylation of Bad Ser112); conditions: read-out: IC50 Pim1
T1 construct: His6-labelled recombinant full-length human Pim-1, Pim-2 or Pim-3 protein; His6; made in house
Experimental: (§1) In order to determine the inhibition of activation of Pim kinases, the compounds of the invention are tested in accordance with a routinely used in vitro TR-FRET assay (Time-Resolved Fluorescence Resonance Energy Transfer). […] For the assay, the following reagents are used:
(§2) Pim kinase—His6-labelled recombinant full-length human Pim-1, Pim-2 or Pim-3 protein (prepared according to J. Mol. Biol. (2005) 348, 183-193); Bad—His6-labelled recombinant full-length human Bad protein (prepared according to J. Mol. Biol. (2005) 348, 183-193); α-His6-APC—murine monoclonal antibody conjugated to allophycocyanin SureLight™ directed against the His6 label (Perkin-Elmer, No. AD0059H, Waltham, Mass., United States); • β-P˜Bad-Eu—murine monoclonal antibody (Cell Signaling Technology #9296B, Danvers, Mass., United States) directed against phosphoBad (Ser112) (7E11) custom-labelled by Perkin-Elmer with the reagent LANCE™ Eu-W1024.
(§3) The assay is based on Perkin-Elmer's LANCE™ technology: the Eu-labelled antibody binds to phospho-Ser112 and generates a TR-FRET signal by interaction with the APC-labelled antibody directed against His6, bound to the His6 label of Bad. The TR-FRET signal is detected using a SpectraMax M5 plate reader (Molecular Devices) with the following settings: λex=340 nm, λem1=615 nm, λem2=665 nm. The ratio of the fluorescence signal at 665 nm to the fluorescence signal at 615 nm is used as the signal reading for the IC50 (calculation is based on the 4-parameter logistic model). The assay is performed in a 384-well format; the liquid manipulations are performed using a Beckman 3000 liquid manipulations station. The test compounds are tested at 10 concentration points in duplicate; the highest compound concentration is typically equal to 30 μM. The ATP concentration is equal to 40 μM, which is equivalent to the apparent KM value.

Pim-2 = biological target: T2, Pim-2 (Homo sapiens, UniProt Q9P1W9); assay: TR-FRET assay, Pim-2 kinase (phosphorylation of Bad Ser112); conditions: read-out: IC50 Pim2
T2 construct: His6-labelled recombinant full-length human Pim-1, Pim-2 or Pim-3 protein; His6; made in house
T2 sequence (Q9P1W9 whole entry): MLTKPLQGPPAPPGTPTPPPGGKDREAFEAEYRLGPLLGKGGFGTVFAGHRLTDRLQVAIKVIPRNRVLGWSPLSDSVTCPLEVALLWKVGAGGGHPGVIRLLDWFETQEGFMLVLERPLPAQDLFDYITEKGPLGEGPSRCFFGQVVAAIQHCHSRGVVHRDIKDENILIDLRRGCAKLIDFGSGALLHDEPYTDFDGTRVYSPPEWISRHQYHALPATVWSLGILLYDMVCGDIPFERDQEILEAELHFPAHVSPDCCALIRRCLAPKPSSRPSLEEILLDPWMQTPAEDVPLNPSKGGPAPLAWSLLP
Experimental: as §1, §2, §3

Pim-3 = biological target: T3, Pim-3 (Homo sapiens, UniProt Q86V86); assay: TR-FRET assay, Pim-3 kinase (phosphorylation of Bad Ser112); conditions: read-out: IC50 Pim3
T3 construct: His6-labelled recombinant full-length human Pim-1, Pim-2 or Pim-3 protein; His6; made in house
Experimental: as §1, §2, §3

[1] = comparative compounds (Compound No., not claimed)

T1 sequence (P11309 whole entry): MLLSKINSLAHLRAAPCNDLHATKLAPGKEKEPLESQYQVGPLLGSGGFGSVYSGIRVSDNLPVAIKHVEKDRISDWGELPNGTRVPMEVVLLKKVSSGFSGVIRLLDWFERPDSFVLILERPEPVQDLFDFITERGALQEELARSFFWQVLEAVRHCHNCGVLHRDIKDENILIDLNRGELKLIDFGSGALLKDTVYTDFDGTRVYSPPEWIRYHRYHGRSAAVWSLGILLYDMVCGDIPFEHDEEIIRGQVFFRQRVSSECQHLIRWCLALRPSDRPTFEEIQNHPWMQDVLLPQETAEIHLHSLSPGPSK

SMILES | IC50 (Pim-1; [1]) | IC50 (Pim-2; [1]) | IC50 (Pim-3; [1]) | IC50 (Pim-1; TR-FRET, ATP 40 μM) | IC50 (Pim-2; TR-FRET, ATP 40 μM) | IC50 (Pim-3; TR-FRET, ATP 40 μM)
COc1cc2c(cn1)[nH]c1cnc(-c3cccnc3)cc12 [Compound 51] | > 5000 nM | > 5000 nM | > 5000 nM | – | – | –
CCOC(=O)c1cnc2[nH]c3cnc(-c4cccnc4)cc3c2c1 [Example 4, ethyl 6-(pyrid-3-yl)-9H-pyrrolo [2,3-b:5,4-c′] dipyridine-3-carboxylate] | – | – | – | 1 to 100 nM | 1000 to 5000 nM | 100 to 1000 nM
Brc1cnc2[nH]c3cnc(-c4cccnc4)cc3c2c1 [Example 9, 3-bromo-6-(pyrid-3-yl)-9H-pyrrolo[2,3-b:5,4-c′]dipyridine] | – | – | – | 100 to 1000 nM | 1000 to 5000 nM | 100 to 1000 nM
CCN(CC)c1cnc2[nH]c3cnc(-c4cccnc4)cc3c2c1 [Example 11, N,N-diethyl-6-(pyrid-3-yl)-9H-pyrrolo[2,3-b:5,4-c′]dipyrid-3-amine] | – | – | – | 1000 to 5000 nM | – | –
CN(CCCC(=O)N1CCCC1)c1cnc2[nH]c3cnc(-c4cccnc4)cc3c2c1 [Example 12, 4-{methyl[6-(pyrid-3-yl)-9H-pyrrolo-[2,3-b:5,4-c′]dipy-rid-3-yl]amino}-1-(pyrrolidin-1-yl)-butan-1-one] | – | – | – | 100 to 1000 nM | – | –
CC(C)(O)c1cnc2[nH]c3cnc(-c4cccnc4)cc3c2c1 [Example 16, 2-[6-(pyrid-3-yl)-9H-pyrrolo[2,3-b:5,4-c′]dipyrid-3-yl]propan-2-ol] | – | – | – | 1000 to 5000 nM | 1000 to 5000 nM | 100 to 1000 nM
OCc1cnc2[nH]c3cnc(-c4cccnc4)cc3c2c1 [Example 17, [6-(pyrid-3-yl)-9H-pyrrolo[2,3-b:5,4-c′]dipyrid-3-yl]methanol] | – | – | – | 100 to 1000 nM | > 5000 nM | 100 to 1000 nM
O=C(O)c1cnc2[nH]c3cnc(-c4cccnc4)cc3c2c1 [Example 19, 6-(pyrid-3-yl)-9H-pyrrolo[2,3-b:5,4-c′]dipyridine-3-carboxylic acid] | – | – | – | 100 to 1000 nM | – | –
Fc1cnc2[nH]c3cnc(-c4cccnc4)cc3c2c1I [Example 20, 3-fluoro-4-iodo-6-(pyrid-3-yl)-9H-pyrrolo[2,3-b:5,4-c′]dipyridine] | – | – | – | 1 to 100 nM | – | –
Fc1cnc2[nH]c3cnc(-c4cccnc4)cc3c2c1/C=C/c1ccccc1 [Example 24, 3-fluoro-4-[(E)-2-phenylethenyl]-6-(pyrid-3-yl)-9H-pyrrolo[2,3-b:5,4-c′]dipyridine] | – | – | – | 100 to 1000 nM | > 5000 nM | 1000 to 5000 nM
Fc1cc(F)cc(-c2c(F)cnc3[nH]c4cnc(-c5cccnc5)cc4c23)c1 [Example 25, 4-(3,5-difluorophenyl)-3-fluoro-6-(pyrid-3-yl)-9H-pyrrolo [2,3-b:5,4-c′]-dipyridine] | – | – | – | 1 to 100 nM | > 5000 nM | 100 to 1000 nM
CCOC(=O)/C=C/c1c(F)cnc2[nH]c3cnc(-c4cccnc4)cc3c12 [Example 29, ethyl (2E)-3-[3-fluoro-6-(pyrid-3-yl)-9H-pyrrolo-[2,3-b:5,4-c′]dipyrid-4-yl]prop-2-enoate] | – | – | – | 100 to 1000 nM | > 5000 nM | 100 to 1000 nM
OCC(O)CCc1c(F)cnc2[nH]c3cnc(-c4cccnc4)cc3c12 (centres unmarked) [Example 30, 4-(3-fluoro-6-(pyrid-3-yl)-9H-pyrrolo[2,3-b:5,4-c′]dipyrid-4-yl]butane-1,2-diol] | – | – | – | 1 to 100 nM | 1000 to 5000 nM | 100 to 1000 nM
Fc1cncc(-c2cc3c(cn2)[nH]c2ncccc23)c1 [Example 42, 6-(5-fluoropyrid-3-yl)-9H-pyrrolo[2,3-b:5,4-c′]dipyridine] | – | – | – | 1000 to 5000 nM | – | –
O=S(=O)(Nc1ccc(-c2c(F)cnc3[nH]c4cnc(-c5cccnc5)cc4c23)cc1)C1CC1 [Example 46, N-{4-[3-fluoro-6-(pyrid-3-yl)-9H-pyrrolo[2,3-b:5,4-c′]dipyrid-4-yl]phenyl}cyclo-propanesulfonamide] | – | – | – | 1 to 100 nM | 100 to 1000 nM | 1 to 100 nM
CCc1cc(N(CC)CC)ncc1-c1cnc2[nH]c3cnc(-c4cccnc4)cc3c2c1 [Example 133, N,N-4-triethyl-5-[6-(pyrid-3-yl)-9H-pyrrolo[2,3-b:5,4-c′]dipyrid-3-yl]pyrid-2-amine] | – | – | – | 1 to 100 nM | – | 100 to 1000 nM

More lines, now with the values ahead:

IC50 (Pim-1; [1]) | IC50 (Pim-2; [1]) | IC50 (Pim-3; [1]) | IC50 (Pim-1; TR-FRET, ATP 40 μM) | IC50 (Pim-2; TR-FRET, ATP 40 μM) | IC50 (Pim-3; TR-FRET, ATP 40 μM) | SMILES
> 5000 nM | > 5000 nM | > 5000 nM | – | – | – | c1cncc(-c2cnc3[nH]c4ncccc4c3c2)c1 [Compound 56]
– | – | – | 100 to 1000 nM | – | – | COC(=O)c1cnc2[nH]c3cnc(-c4cccnc4)cc3c2c1 [Example 3, methyl 6-(pyrid-3-yl)-9H-pyrrolo[2,3-b:5,4-c′]dipyridine-3-carboxylate]
– | – | – | 100 to 1000 nM | 1000 to 5000 nM | 100 to 1000 nM | Clc1cnc2[nH]c3cnc(-c4cccnc4)cc3c2c1 [Example 13, 3-chloro-6-(pyrid-3-yl)-9H-pyrrolo[2,3-b:5,4-c′]dipyridine]
– | – | – | 1 to 100 nM | > 5000 nM | 100 to 1000 nM | CC(C)COC(=O)c1cnc2[nH]c3cnc(-c4cccnc4)cc3c2c1 [Example 18, 2-methylpropyl 6-(pyrid-3-yl)-9H-pyrrolo[2,3-b:5,4-c′]dipyridine-3-carboxylate]
– | – | – | 100 to 1000 nM | > 5000 nM | 1000 to 5000 nM | Fc1cnc2[nH]c3cnc(-c4cccnc4)cc3c2c1-c1cccc(N2CCOCC2)c1 [Example 31, 3-fluoro-4-[3-(morpholin-4-yl)phenyl]-6-(pyrid-3-yl)-9H-pyrrolo [2,3-b:5,4-c′]dipyridine]
– | – | – | 100 to 1000 nM | > 5000 nM | 1000 to 5000 nM | CN(C(=O)c1c(F)cnc2[nH]c3cnc(-c4cccnc4)cc3c12)c1ccccc1 [Example 35, 3-fluoro-N-methyl-N-phenyl-6-(pyrid-3-yl)-9H-pyrrolo[2,3-b:5,4-c′]-dipyridine-4-carboxamide]
– | – | – | 100 to 1000 nM | > 5000 nM | 1000 to 5000 nM | Fc1cnc2[nH]c3cnc(-c4cccnc4)cc3c2c1Cl [Example 37, 4-chloro-3-fluoro-6-(pyrid-3-yl)-9H-pyrrolo[2,3-b:5,4-c′]dipyridine]
– | – | – | 100 to 1000 nM | > 5000 nM | 100 to 1000 nM | Cc1c(F)cnc2[nH]c3cnc(-c4cccnc4)cc3c12 [Example 38, 4-methyl-3-fluoro-6-(pyrid-3-yl)-9H-pyrrolo[2,3-b:5,4-c′]dipyridine]
– | – | – | 1000 to 5000 nM | > 5000 nM | > 5000 nM | Fc1ccc(-c2cc3c(cn2)[nH]c2ncccc23)cn1 [Example 41, 6-(6-fluoropyrid-3-yl)-9H-pyrrolo[2,3-b:5,4-c′]dipyridine]
– | – | – | 100 to 1000 nM | > 5000 nM | 100 to 1000 nM | COc1ccc(-c2c(F)cnc3[nH]c4cnc(-c5cccnc5)cc4c23)cn1 [Example 52, 3-fluoro-4-(6-methoxypyrid-3-yl)-6-(pyrid-3-yl)-9H-pyrrolo[2,3-b:5,4-c′]-dipyridine]
– | – | – | 1 to 100 nM | 1000 to 5000 nM | 100 to 1000 nM | CS(=O)(=O)Nc1cccc(-c2c(F)cnc3[nH]c4cnc(-c5cccnc5)cc4c23)c1 [Example 53, N-{3-[3-fluoro-6-(pyrid-3-yl)-9H-pyrrolo[2,3-b:5,4-c′]-dipyrid-4-yl]phenyl}-methanesulfonamide]
– | – | – | 1 to 100 nM | > 5000 nM | 100 to 1000 nM | Cc1csc(-c2c(F)cnc3[nH]c4cnc(-c5cccnc5)cc4c23)c1 [Example 54, 3-fluoro-4-(4-methylthiophen-2-yl)-6-(pyrid-3-yl)-9H-pyrrolo[2,3-b:5,4-c′]dipyridine]
– | – | – | 1 to 100 nM | 1000 to 5000 nM | 100 to 1000 nM | Fc1cnc2[nH]c3cnc(-c4cccnc4)cc3c2c1-c1ccc2cc[nH]c2c1 [Example 55]
– | – | – | 100 to 1000 nM | – | 100 to 1000 nM | CC(C)(C)OC(=O)N1CCN(c2ccc(-c3cnc4[nH]c5cnc(-c6cccnc6)cc5c4c3)cc2)CC1 [Example 129, 2-methyl-2-propyl 4-{4-[6-(pyrid-3-yl)-9H-pyrrolo[2,3-b:5,4-c′]dipyrid-3-yl]phenyl}-piperazine-1-carboxylate]
– | – | – | 100 to 1000 nM | – | 100 to 1000 nM | CC(C)(C)OC(=O)N1CCN(c2cccc(-c3cnc4[nH]c5cnc(-c6cccnc6)cc5c4c3)c2)CC1 [Example 131, 2-methyl-2-propyl 4-{3-[6-(pyrid-3-yl)-9H-pyrrolo[2,3-b:5,4-c′]dipyrid-3-yl]phenyl}piperazine-1-carboxylate]
– | – | – | 100 to 1000 nM | – | 100 to 1000 nM | CC(C)(C)OC(=O)N1CCN(c2cc(-c3cnc4[nH]c5cnc(-c6cccnc6)cc5c4c3)ccn2)CC1 [Example 143, 2-methyl-2-propyl 4-{4-[6-(pyrid-3-yl)-9H-pyrrolo[2,3-b:5,4-c′]dipyrid-3-yl]pyrid-2-yl}piperazine-1-carboxylate]

Reference: patent publication US20110178053A1, “AZACARBOLINE DERIVATIVES, PREPARATION METHOD THEREOF AND THERAPEUTIC USE OF SAME” (SANOFI-AVENTIS, priority 2008, published 2011)
